The results in this text go back to patent publication US11091428B2 (HAPLOGEN GMBH, priority 2016, dated 2021).

A value given as a limit tells only on which side of the number the result lay.

In the experiment the target is T1, PLA2G16 (Homo sapiens, UniProt P53816).
T1 construct: Hexa-His (N); made in house; host or cells: E. coli BL21(DE3)
T1 sequence (P53816 1-162): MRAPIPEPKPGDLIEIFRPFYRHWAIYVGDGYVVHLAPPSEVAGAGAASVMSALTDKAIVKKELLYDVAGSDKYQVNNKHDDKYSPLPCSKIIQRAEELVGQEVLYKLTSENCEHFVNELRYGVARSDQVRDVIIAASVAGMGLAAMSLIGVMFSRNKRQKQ
In words: Enzyme activity assay for PLA2G16 (Red/Green BODIPY PC-A2 fluorescence). Format: biochemical. To be noted: His-tagged PLA2G16, 4 min pre-incubation, 2 nM to 50 μM; read-out: IC50 values of the compounds determined in the enzyme activity assay for PLA2G16. An excerpt: A cDNA for PLA2G16(NM_007069) was custom-synthesized by Genscript (Piscataway, USA) and inserted into a pET-based bacterial expression vector [Moffatt, B. A. and Studier, F. W. (1986) J. Mol. Biol. 189, 113-130; Rosenberg, A. H., Lade, B. N., Chui, D., Lin, S., Dunn, J. J., and Studier, F. W. (1987) Gene 56, 125-135], enabling the expression of N-terminally Hexa-His-tagged PLA2G16. E. coli BL21(DE3) (Agilent) were transformed with pET-His-PLA2G16according to the manufacturer's instructions and plated on Carbenicillin-containing agar plates (final concentration: 100 μg/mL). A single clone was in occulated in 100 mL LB medium supplemented with 100 μg/mL Carbenicillin and the in occulated culture was grown at 37° C. overnight in a rotary shaker. On the next day, the bacterial culture was diluted in LB medium supplemented with 100 μg/mL Carbenicillin (30 mL overnight culture in 800 mL total culture volume). Bacteria were grown at 37° C. until the OD600 reached 0.6. Gene expression was induced by addition of 1 mM isopropyl-β-D-thiogalactopyranosid (IPTG) for 2 h at 18° C. Subsequently, bacteria were harvested by centrifugation (15 min; 10,000×g; 4° C.) and frozen at −80° C. The bacterial pellet was resuspended in Buffer A (50 mM Tris/HCl pH 7.5, 500 mM NaCl, 5% glycerol, 5 mM β-Mercaptoethanol and 1 mM PMSF) and lysed by addition of 1 mg/mL lysozyme (Sigma Aldrich) and 100 μg/mL DNasel-(Roche). The sample was incubated at 30° C. for 30 min to allow lysis to occur. Then, the lysate was cleared by centrifugation (15,000×g, 15 min, 4° C.) and incubated with 1.5 mL Ni-NTA agarose suspension (Qiagen) for 60 min at 4° C. The Ni-NTA agarose was washed with 10 mL Buffer A. Bound protein was eluted by applying a manual gradient of Buffer A supplemented with increasing concentrations of imidazole (Sigma Aldrich; 25/50/75/100/250 mM). Purified fractions were analyzed by SDS-PAGE followed by Coomassie staining to assess the purity.
Activity of the protein was assessed as follows: Red/Green BODIPY® PC-A2 (Invitrogen, 1 mM in DMSO) was mixed with equal volumes of 1,2-Dioleoyl-sn-glycero-3-phosphocholine (DOPC; Sigma Aldrich, 10 mM in Ethanol) and 1,2-Dioleoyl-sn-glycero-3-phospho-rac-(1-glycerol) (DOPG; Sigma Aldrich, 10 mM in Ethanol) and 0.5 volumes of Cholesterol (CHOL; Sigma Aldrich, 10 mM in Ethanol) and vortexed for 5 s. The mixture (Red/Green BODIPY® PC-A2/DOPC/DOPG/CHOL) was diluted 1:91.4 in activity assay buffer (50 mM Tris/HCl pH 8.5, 100 mM NaCl) using a small-orifice pipette tip under constant vortexing. In the following, this preparation will be referred to as the “substrate solution”.
In order to evaluate their inhibitory potential, compounds were dissolved at 10 mM concentration in DMSO and directly spotted into assay plates (Corning, Cat. No. 3576) using acoustic liquid transfer (Labcyte Echo 525). Each compound was spotted at increasing concentrations, ranging from 2 nM to 50 μM (concentration in the final assay volume). 50 μl of PLA2G16 enzyme solution (diluted in activity buffer, supplemented with 5 mM L-Glutathione; Sigma Aldrich) was pre-incubated with compounds for 4 min., followed by addition of 50 μl of substrate solution. Fluorescence was recorded immediately after substrate addition for a total time of 10 min. using a SpectraMax M5 multimode reader (Excitation wavelength: 480 nm, emission wavelength: 530 nm). The relative increase of fluorescence over time is referred to as the enzyme activity. Half-maximal inhibitory concentrations (IC50) were derived by non-linear regression analysis using the drc package in R (R Development. Core Team, 2005).
As for `CC(NC(=O)c1ccc(F)cc1)C(=O)C(=O)NCC1CC1` (stereo not shown) [FP 153, N-(Cyclopropylmethyl)-3-[(4-fluorophenyl)formamido]-2-oxobutanamide], the IC50 lay in the range of 1000 to 10000 nM.

Turning to `CC(C(=O)C(=O)NCc1cccc(Cl)c1)N(C=O)C1CCCCC1` (stereo not shown) [FP 17, N-[(3-Chlorophenyl)methyl]-3-(N-cyclohexylformamido)-2-oxobutanamide], the IC50 is less than 1000 nM. Regarding `COc1ccccc1N(C=O)C(C)C(=O)C(N)=O` (stereo not shown) [FP 14, 3-[N-(2-Methoxyphenyl)formamido]-2-oxobutanamide], the IC50 is 1000 to 10000 nM.

Take `COc1ccccc1N(C=O)C(C)C(=O)C(=O)NCc1ccccc1` (stereo not shown) [FP 88, N-Benzyl-3-[N-(2-methoxyphenyl)formamido]-2-oxobutanamide]: the IC50 is less than 1000 nM.

As for `COc1ccccc1N1C(=O)CC[C@H]1C(=O)C(=O)NCC1CC1` [FP 140, N-(cyclopropylmethyl)-2-[(2S)-1-(2-methoxyphenyl)-5-oxopyrrolidin-2-yl]-2-oxoacetamide], the IC50 was 10000 to 50000 nM.

Turning to `C[C@@H](O)CNC(=O)C(=O)C1CCC(=O)N1Cc1ccc(Cl)cc1` (stereo partly drawn) [FP 259, 2-{1-[(4-Chlorophenyl)methyl]-5-oxopyrrolidin-2-yl}-N-[(2R)-2-hydroxypropyl]-2-oxoacetamide], the IC50 is less than 1000 nM.

`COc1ccccc1N(C(C)=O)C(C)C(=O)C(=O)NCc1cccc(Cl)c1` (stereo not shown) [FP 185, N-[(3-Chlorophenyl)methyl]-3-[N-(2-methoxyphenyl)acetamido]-2-oxobutanamide]: the IC50 was less than 1000 nM. Turning to `COc1ccccc1N(C=O)C(C)C(=O)C(=O)NCc1cc(Cl)cc(Cl)c1` (stereo not shown) [FP 83, N-[(3,5-Dichlorophenyl)methyl]-3-[N-(2-methoxyphenyl)formamido]-2-oxobutanamide], the IC50 was less than 1000 nM.

`COc1ccccc1N(C=O)C(C(=O)C(=O)NCc1cccc(Cl)c1)c1ccccc1` (stereo not shown) [FP 10, N-[(3-Chlorophenyl)methyl]-3-[N-(2-methoxyphenyl)formamido]-2-oxo-3-phenylpropanamide]: the IC50 is 1000 to 10000 nM.

`COc1ccccc1N(C=O)[C@@H](C)C(=O)C(=O)NCc1cccc(Cl)c1` (single isomer, unassigned) [FP 3]: the IC50 was less than 1000 nM. Regarding `CC(C(=O)C(=O)NCc1cccc(Cl)c1)N(C=O)c1ccccc1` (stereo not shown) [FP 6, N-[(3-Chlorophenyl)methyl]-2-oxo-3-(N-phenylformamido)butanamide], the IC50 was less than 1000 nM. For `COc1ccccc1N1C(=O)CC[C@H]1C(=O)C(=O)NCc1cccc(Cl)c1` [FP 139, N-[(3-Chlorophenyl)methyl]-2-[(2S)-1-(2-methoxyphenyl)-5-oxopyrrolidin-2-yl]-2-oxoacetamide], the IC50 is 1000 to 10000 nM. Then `COc1ccccc1N(C=O)C(C)C(=O)C(=O)NCC1CCOCC1` (stereo not shown) [FP 103, 3-[N-(2-Methoxyphenyl)formamido]-m[(oxan-4-yl)methyl]-2-oxobutanamide], with less than 1000 nM; and `COc1ccccc1N(C=O)C(C)C(=O)C(=O)N(C)Cc1cccc(Cl)c1` (stereo not shown) [FP 77, N-[(3-Chlorophenyl)methyl]-3-[N-(2-methoxyphenyl)formamido]-N-methyl-2-oxobutanamide], with less than 1000 nM. As to `COCC(=O)N(C)C(C)C(=O)C(=O)NCC1CCCCC1` (stereo not shown) [FP 148, N-(Cyclohexylmethyl)-3-(2-methoxy-N-methylacetamido)-2-oxobutanamide], the IC50 is less than 1000 nM. Consider `CC(C)N(C=O)C(C)C(=O)C(=O)NC(C)(C)c1cccc(Cl)c1` (stereo not shown) [FP 26, N-[2-(3-Chlorophenyl)propan-2-yl]-2-oxo-3-[N-(propan-2-yl)formamido]butanamide], for which the IC50 is 1000 to 10000 nM. To `COc1ccc(N(C=O)C(C)C(=O)C(=O)NCc2cccc(Cl)c2)cc1` (stereo not shown) [FP 5, N-[(3-Chlorophenyl)methyl]-3-[N-(4-methoxyphenyl)formamido]-2-oxobutanamide] belongs less than 1000 nM; to `COc1cccc(N(C=O)C(C)C(=O)C(=O)NCc2cccc(Cl)c2)c1` (stereo not shown) [FP 4, N-[(3-Chlorophenyl)methyl]-3-[N-(3-methoxyphenyl)formamido]-2-oxo butanamide], less than 1000 nM. For the molecule `CC(C(=O)C(=O)NCC1CC1)N(CC1CCOCC1)S(C)(=O)=O` (stereo not shown) [FP 223, N-(Cyclopropylmethyl)-3-{N-[(oxan-4-yl)methyl]methanesulfonamido}-2-oxobutanamide], the half-maximal inhibitory concentration (IC50) lay in the range of 10000 to 50000 nM. For `CC(C(=O)C(=O)NCc1cccc(Cl)c1)N(C=O)Cc1ccccc1` (stereo not shown) [FP 20, 3-(N-Benzylformamido)-N-[(3-chlorophenyl)methyl]-2-oxobutanamide], the IC50 is less than 1000 nM. Regarding `COc1ccccc1NC(=O)C(=O)[C@H](C)N(C=O)c1ccccc1OC` [FP 82, (3S)—N-(2-Methoxyphenyl)-3-[N-(2-methoxyphenyl)formamido]-2-oxobutanamide], the IC50 fell in the range of 1000 to 10000 nM. To `CC(C(=O)C(=O)NCc1ccccc1)N(C=O)C1CCCCC1` (stereo not shown) [FP 113, N-Benzyl-3-(N-cyclohexylformamido)-2-oxobutanamide] belongs less than 1000 nM.

With `COc1ccccc1N(C=O)C(C)(C)C(=O)C(=O)NCc1cccc(Cl)c1` [FP 9, N-[(3-Chlorophenyl)methyl]-3-[N-(2-methoxyphenyl)formamido]-3-methyl-2-oxobutanamide], the IC50 was 1000 to 10000 nM. Then `CC(C(=O)C(=O)NCC1CCCCC1)N(C)C(=O)CN(C)C` (stereo not shown) [FP 177, N-(Cyclohexylmethyl)-3-[2-(dimethylamino)-N-methylacetamido]-2-oxobutanamide], with 1000 to 10000 nM. On to `O=C(NC1CC1)C(=O)C1CCC(=O)N1Cc1ccccc1Cl` (stereo not shown) [FP 260, 2-{1-[(2-Chlorophenyl)methyl]-5-oxopyrrolidin-2-yl}-N-cyclopropyl-2-oxoacetamide], for which the IC50 is less than 1000 nM.

Consider `CC(C)N(C=O)C(C)C(=O)C(=O)NCc1cccc(Cl)c1` (stereo not shown) [FP 21, N-[(3-Chlorophenyl)methyl]-2-oxo-3-[N-(propan-2-yl)formamido]butanamide], for which the IC50 was less than 1000 nM. Take `Cc1cc(C(=O)N(C)C(C)C(=O)C(=O)NCC2CCCCC2)no1` (stereo not shown) [FP 147, N-(Cyclohexylmethyl)-3-[N-methyl-1-(5-methyl-1,2-oxazol-3-yl)formamido]-2-oxobutanamide]: the IC50 is less than 1000 nM. `CC(=O)NCCCOCCCCOCCCNC(=O)C(=O)C1CCC(=O)N1Cc1ccc(Cl)cc1` (stereo not shown) [FP 329, 2-{1-[(4-Chlorophenyl)methyl]-5-oxopyrrolidin-2-yl}-N-{3-[4-(3-acetamidopropoxy)butoxy]propyl}-2-oxoacetamide]: the IC50 is less than 1000 nM. Turning to `CC(C(=O)C(=O)NCC1CCCCC1)N1CCCCC1=O` (stereo not shown) [FP 186, N-(Cyclohexylmethyl)-2-oxo-3-(2-oxopiperidin-1-yl)butanamide], the IC50 was 10000 to 50000 nM. Turning to `COc1cccc(CNC(=O)C(=O)C(C)N(C=O)c2ccccc2OC)c1` (stereo not shown) [FP 85, 3-[N-(2-Methoxyphenyl)formamido]-N-[(3-methoxyphenyl)methyl]-2-oxobutanamide], the IC50 is less than 1000 nM. Then `CC(C(=O)C(=O)NCC1CC1)N(C=O)C1CCC(F)(F)CC1` (stereo not shown) [FP 194, N-(Cyclopropylmethyl)-3-[N-(4,4-difluorocyclohexyl)formamido]-2-oxobutanamide], with less than 1000 nM.
